Test results taken from the C3SDB collision cross section collection.
Several values for one entry are separate records, joined by “and”; a condition that tells them apart may be missing. Equal entries are not always repeated.

Key:
[1] = instrument: DT, stepped-field
[2] = [M+H]+; instrument: TW; Major Mix IMS/Tof Calibration Kit (Waters)

OCC1OC(OC2(CO)OC(CO)C(O)C2O)C(O)C(O)C1O (stereo unspecified) [(Hex)2]
collision cross section (N2) ([1]; [M+Na-H2O]+): 172.1 Å²

OCC1OC(OC2C(CO)OC(OC3C(CO)OC(O)C(O)C3O)C(O)C2O)C(O)C(O)C1O (stereo unspecified) [(Hex)3]
collision cross section (N2) ([1]; [M+Na-H2O]+): 204.9 Å²

OCC1OC(OC2C(CO)OC(OC3C(CO)OC(OC4C(CO)OC(OC5C(CO)OC(O)C(O)C5O)C(O)C4O)C(O)C3O)C(O)C2O)C(O)C(O)C1O (stereo unspecified) [(Hex)5]
collision cross section (N2) ([1]; [M+H-H2O]+): 282.3 Å² | collision cross section (N2) ([1]; [M+Na-H2O]+): 263.1 Å² | collision cross section (N2) ([1]; [M+Na]+): 259.5 Å²

OCC1OC(OC2C(CO)OC(OC3C(CO)OC(OC4C(CO)OC(OC5C(CO)OC(OC6C(CO)OC(OC7C(CO)OC(OC8C(CO)OC(OC9C(CO)OC(OC%10C(CO)OC(OC%11C(CO)OC(O)C(O)C%11O)C(O)C%10O)C(O)C9O)C(O)C8O)C(O)C7O)C(O)C6O)C(O)C5O)C(O)C4O)C(O)C3O)C(O)C2O)C(O)C(O)C1O (stereo unspecified) [(Hex)11]
collision cross section (N2) ([1]; [M+H-H2O]+): 379.1 Å² | collision cross section (N2) ([1]; [M+K]+): 364.8 Å² and 367.1 Å² | collision cross section (N2) ([1]; [M+Li]+): 369.7 Å² | collision cross section (N2) ([1]; [M+Na]+): 384.6 Å² | collision cross section (N2) ([1]; [M+Rb]+): 363.1 Å² and 369.7 Å²

C[C@H](N)C(=O)N[C@@H](C)C(=O)NCC(=O)N[C@@H](Cc1c[nH]cn1)C(=O)N[C@@H](CC(=O)O)C(=O)NCC(=O)N[C@@H](CCCCN)C(=O)O [AAGHDGK]
collision cross section (N2) ([1]; [M+H]+): 249 Å²

CC(C)C[C@H](NC(=O)[C@H](CC(=O)O)NC(=O)[C@H](C)N)C(=O)N[C@@H](C)C(=O)N[C@@H](CCCCN)C(=O)O [ADLAK]
collision cross section (N2) ([1]; [M+H]+): 228.3 Å²

CCC(C)[C@H](NC(=O)[C@H](CC(C)C)NC(=O)[C@H](CC(C)C)NC(=O)[C@H](CCC(=O)O)NC(=O)[C@H](CC(N)=O)NC(=O)[C@H](C)N)C(=O)N[C@@H](CC(N)=O)C(=O)N[C@H](C(=O)N[C@@H](CCCCN)C(=O)O)C(C)C (stereo partly specified) [ANELLINVK]
collision cross section (N2) ([1]; [M+H]+): 326.8 Å²

OC[C@H]1O[C@@H]2O[C@H]3[C@H](O)[C@@H](O)[C@@H](O[C@H]4[C@H](O)[C@@H](O)[C@@H](O[C@H]5[C@H](O)[C@@H](O)[C@@H](O[C@H]6[C@H](O)[C@@H](O)[C@@H](O[C@H]7[C@H](O)[C@@H](O)[C@@H](O[C@H]1[C@H](O)[C@H]2O)O[C@@H]7CO)O[C@@H]6CO)O[C@@H]5CO)O[C@@H]4CO)O[C@@H]3CO [Alpha-Cyclodextrin]
collision cross section (N2) ([1]; [M+H]+): 285.2 Å² | collision cross section (N2) ([1]; [M+K]+): 287.7 Å² | collision cross section (N2) ([1]; [M+Na]+): 285.5 Å²

NCCCC[C@H](NC(=O)[C@H](CC(=O)O)NC(=O)CNC(=O)[C@@H](N)CC(=O)O)C(=O)O [DGDK]
collision cross section (N2) ([1]; [M+H]+): 195.8 Å²

CC(C)[C@H](NC(=O)[C@@H](N)CC(=O)O)C(=O)N[C@@H](CS)C(=O)N[C@@H](CCCCN)C(=O)O [DVCK]
collision cross section (N2) ([1]; [M+H]+): 204.7 Å²

CC(C)C[C@H](NC(=O)[C@H](Cc1ccc(O)cc1)NC(=O)[C@H](C)NC(=O)[C@H](C)NC(=O)[C@@H](N)Cc1ccccc1)C(=O)N[C@@H](CCC(=O)O)C(=O)N[C@@H](CCCNC(=N)N)C(=O)O [FAAYLER]
collision cross section (N2) ([1]; [M+H]+): 295.5 Å²

NCCCC[C@H](NC(=O)[C@H](CC(N)=O)NC(=O)[C@H](CCC(N)=O)NC(=O)[C@@H](N)Cc1ccccc1)C(=O)O [FQNK]
collision cross section (N2) ([1]; [M+Na]+): 243.9 Å²

N=C(N)NCCC[C@H](NC(=O)[C@H](CC(=O)O)NC(=O)[C@H](CO)NC(=O)[C@H](CO)NC(=O)[C@@H](N)Cc1ccccc1)C(=O)O [FSSDR]
collision cross section (N2) ([1]; [M+H]+): 237.3 Å²

NCCCC[C@H](NC(=O)CNC(=O)[C@H](Cc1c[nH]c2ccccc12)NC(=O)[C@@H](N)Cc1ccccc1)C(=O)O [FWGK]
collision cross section (N2) ([1]; [M+H]+): 231 Å²

CCCCCCCCCCCCC=CC[C@@H](O)[C@H](CO[C@@H]1O[C@H](CO)[C@@H](O)C(O)C1O)NC(=O)CC=CCC=CCCCCCCCCCCCCCCC (stereo partly specified) [GlcCer(40:3)]
collision cross section (N2) ([1]; [M+Na]+): 295.8 Å²

CCCCC=CCC=CCC=CCC=CCC=CCC=CCC=CCC=CCC(=O)N[C@@H](CO[C@@H]1O[C@H](CO)[C@@H](O)C(O)C1O)[C@H](O)CC=CCCCCCCCCCCCC (stereo partly specified) [GlcCer(47:9)]
collision cross section (N2) ([1]; [M+K]+): 316.4 Å²

CCC(C)[C@H](N)C(=O)NCC(=O)N[C@@H](CO)C(=O)N[C@@H](CCC(=O)O)C(=O)N[C@H](C(=O)N[C@@H](Cc1ccc(O)cc1)C(=O)N[C@@H](Cc1c[nH]cn1)C(=O)N[C@@H](CC(N)=O)C(=O)N[C@@H](CC(C)C)C(=O)N[C@@H](CCCCN)C(=O)O)C(C)C (stereo partly specified) [IGSEVYHNLK]
collision cross section (N2) ([1]; [M+H]+): 348.4 Å²

CCC(C)[C@H](N)C(=O)N[C@@H](Cc1c[nH]cn1)C(=O)N[C@@H](CCC(=O)O)C(=O)N[C@@H](Cc1ccc(O)cc1)C(=O)N[C@@H](CCCCN)C(=O)O (stereo partly specified) [IHEYK]
collision cross section (N2) ([1]; [M+H]+): 258.5 Å²

CC(C)C[C@H](N)C(=O)N[C@@H](Cc1c[nH]c2ccccc12)C(=O)N[C@@H](CO)C(=O)N[C@@H](C)C(=O)N[C@@H](CCCCN)C(=O)O [LWSAK]
collision cross section (N2) ([1]; [M+H]+): 238.6 Å²

CC(=O)N[C@H]1[C@H](O[C@H]2[C@@H](O)[C@@H](CO)O[C@@H](O[C@@H]([C@H](O)[C@@H](O)C=O)[C@H](O)CO)[C@@H]2O)O[C@H](CO)[C@@H](O[C@@H]2O[C@@H](C)[C@@H](O)[C@@H](O)[C@@H]2O)[C@@H]1O[C@@H]1O[C@H](CO)[C@H](O)[C@H](O)[C@H]1O [Lacto-N-Fucopentaose II]
collision cross section (N2) ([1]; [M+K]+): 267.2 Å² | collision cross section (N2) ([1]; [M+Na]+): 271.1 Å² | collision cross section (N2) ([1]; [M+Rb]+): 278.4 Å²

CC(=O)N[C@H]1[C@H](O[C@H]2[C@@H](O)[C@@H](CO)O[C@@H](O[C@H]3[C@H](O)[C@@H](O)C(O)O[C@@H]3CO)[C@@H]2O)O[C@H](CO)[C@@H](O)[C@@H]1O[C@@H]1O[C@H](CO)[C@H](O)[C@H](O)[C@H]1O[C@@H]1O[C@@H](C)[C@@H](O)[C@@H](O)[C@@H]1O (stereo partly specified) [Lacto-N-Fucopentaose I]
collision cross section (N2) ([1]; [M+Cs]+): 275.6 Å² | collision cross section (N2) ([1]; [M+K]+): 274.7 Å² | collision cross section (N2) ([1]; [M+Li]+): 269.6 Å² | collision cross section (N2) ([1]; [M+Na]+): 276.1 Å² | collision cross section (N2) ([1]; [M+Rb]+): 275.2 Å²

OC[C@H]1O[C@@H](O[C@H]2[C@H](O)[C@@H](O)[C@@H](O)O[C@@H]2CO)[C@H](O)[C@@H](O)[C@H]1O [Lactose]
collision cross section (N2) ([1]; [M+Li]+): 186.3 Å² | collision cross section (N2) ([1]; [M+Na]+): 178.1 Å²

CCC(c1ccccc1)c1c(O)c2ccccc2oc1=O (stereo unspecified) [Phenprocoumon]
collision cross section (N2) [2]: 160 Å²

O=c1[nH]c2ccccc2n1C1CCN(CCCC(c2ccc(F)cc2)c2ccc(F)cc2)CC1 [Pimozide]
collision cross section (N2) [2]: 214.4 Å²

CCN(CC)CCOC(=O)c1ccc(N)cc1 [Procaine]
collision cross section (N2) [2]: 154.6 Å²

OC(CCN1CCCC1)(c1ccccc1)C1CCCCC1 (stereo unspecified) [Procyclidine]
collision cross section (N2) [2]: 172.6 Å²

CC(C)NC(=N)NC(=N)Nc1ccc(Cl)cc1 [Proguanil]
collision cross section (N2) [2]: 161.3 Å²

CN(C)CCCN1c2ccccc2Sc2ccccc21 [Promazine]
collision cross section (N2) [2]: 161.5 Å²

CCCNCC(O)COc1ccccc1C(=O)CCc1ccccc1 (stereo unspecified) [Propafenone]
collision cross section (N2) [2]: 178.5 Å²

CNCCCC1c2ccccc2C=Cc2ccccc21 [Protriptyline]
collision cross section (N2) [2]: 162.8 Å²

CN(C)CCc1c[nH]c2cccc(O)c12 [Psilocin]
collision cross section (N2) [2]: 144.8 Å²

C=C[C@H]1C[N@@]2CC[C@H]1C[C@@H]2[C@@H](O)c1ccnc2ccc(OC)cc12 [Quinidine]
collision cross section (N2) [2]: 175.8 Å²

C=C[C@H]1C[N@@]2CC[C@H]1C[C@H]2[C@H](O)c1ccnc2ccc(OC)cc12 [Quinine]
collision cross section (N2) [2]: 177.4 Å²

CC(C)(C)NCC(O)c1ccc(O)c(CO)c1 (stereo unspecified) [Salbutamol]
collision cross section (N2) [2]: 160 Å²

CN1[C@@H]2C[C@@H](OC(=O)[C@H](CO)c3ccccc3)C[C@H]1[C@@H]1O[C@@H]12 [Scopolamine]
collision cross section (N2) [2]: 171.1 Å²

C#CCN(C)[C@H](C)Cc1ccccc1 [Selegiline]
collision cross section (N2) [2]: 142.1 Å²

O=c1[nH]ccn1CCN1CCC(c2cn(-c3ccc(F)cc3)c3ccc(Cl)cc23)CC1 [Sertindol-M dehydro]
collision cross section (N2) [2]: 213.8 Å²

O=C(O)c1cc(/N=N/c2ccc(S(=O)(=O)Nc3ccccn3)cc2)ccc1O [Sulfasalazine]
collision cross section (N2) [2]: 199.7 Å²

CCN1CCCC1CNC(=O)c1cc(S(N)(=O)=O)ccc1OC (stereo unspecified) [Sulpiride]
collision cross section (N2) [2]: 184.3 Å²

CC(C)(C)c1ccc(C(O)CCCN2CCC(C(O)(c3ccccc3)c3ccccc3)CC2)cc1 (stereo unspecified) [Terfenadine]
collision cross section (N2) [2]: 229.8 Å²

CCCCNc1ccc(C(=O)OCCN(C)C)cc1 [Tetracaine]
collision cross section (N2) [2]: 173.1 Å²

CN1c2ccccc2C(NCCCCCCC(=O)O)c2ccc(Cl)cc2S1(=O)=O (stereo unspecified) [Tianeptine]
collision cross section (N2) [2]: 197 Å²

CN1CCN(CCCN2c3ccccc3Sc3ccc(C(F)(F)F)cc32)CC1 [Trifluoperazine]
collision cross section (N2) [2]: 188.1 Å²

CC(CN(C)C)CN1c2ccccc2CCc2ccccc21 (stereo unspecified) [Trimipramine]
collision cross section (N2) [2]: 171.2 Å²

COc1ccc(CCNCCCC(C#N)(c2ccc(OC)c(OC)c2)C(C)C)cc1OC (stereo unspecified) [Verapamil-M nor]
collision cross section (N2) [2]: 207.3 Å²

Cc1cccc(C)c1NC1=NCCCS1 [Xylazine]
collision cross section (N2) [2]: 147.9 Å²

Cc1cc(C(C)(C)C)cc(C)c1CC1=NCCN1 [Xylometazoline]
collision cross section (N2) [2]: 170.4 Å²

COC(=O)[C@@H]1[C@H]2C[C@H]3c4[nH]c5ccccc5c4CCN3C[C@@H]2CC[C@@H]1O [Yohimbine]
collision cross section (N2) [2]: 186.5 Å²

Cc1ccc2nc(-c3ccc(C(=O)O)cc3)c(CC(=O)N(C)C)n2c1 [Zolpidem-M Carboxylic acid]
collision cross section (N2) [2]: 184.4 Å²

CN1CCN(C(=O)OC2c3nccnc3C(=O)N2c2ccc(Cl)cn2)CC1 (stereo unspecified) [Zopiclone]
collision cross section (N2) [2]: 188.5 Å²

FC(F)(F)c1cccc(N2CCNCC2)c1 [m-Trifluorophenylpiperazine (TFMPP)]
collision cross section (N2) [2]: 151.1 Å²
